Experimental data reported in PubChem BioAssay AID2060488 (Molecular Pharmacology Branch, DTP, NCI, 2025).

Tested on: 966289-007-R4-J1-PDC complex spheroid viability
Assay: Anticancer human tumor 966289-007-R4-J1-PDC patient-derived pancreatic adenocarcinoma cell line growth inhibition [GQUAD]
Conditions: for IC50: curve of first compound; for viability, T/C: stronger effect = lower value
Procedure, shortened: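 Multi-cell-type spheroids of tumor cells with HUVEC and mesenchymal stem cells, treated with drug combinations. Concentrations descend in half-log steps from near clinical Cmax, or from 10 microM where Cmax is unknown; viability read-out.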

[1] = second compound 0.0316 µM, first compound 0.0316 µM
[2] = second compound 0.0316 µM, first compound 0.316 µM
[3] = second compound 0.1 µM, first compound 0.0316 µM
[4] = second compound 0.1 µM, first compound 0.316 µM
[5] = second compound 0.316 µM, first compound 0.0316 µM
[6] = second compound 0.316 µM, first compound 0.316 µM
[7] = second compound 1 µM, first compound 0.0316 µM
[8] = second compound 1 µM, first compound 0.316 µM
[9] = second compound 3.16 µM, first compound 0.0316 µM
[10] = second compound 3.16 µM, first compound 0.316 µM
[11] = second compound 10 µM, first compound 0.0316 µM
[12] = second compound 10 µM, first compound 0.316 µM
[13] = second compound 0.0316 µM, first compound 0.000999 µM
[14] = second compound 0.0316 µM, first compound 0.00316 µM
[15] = second compound 0.0316 µM, first compound 0.00999 µM
[16] = second compound 0.0316 µM, first compound 0.0999 µM
[17] = second compound 0.1 µM, first compound 0.000999 µM
[18] = second compound 0.1 µM, first compound 0.00316 µM
[19] = second compound 0.1 µM, first compound 0.00999 µM
[20] = second compound 0.1 µM, first compound 0.0999 µM
[21] = second compound 0.316 µM, first compound 0.000999 µM
[22] = second compound 0.316 µM, first compound 0.00316 µM
[23] = second compound 0.316 µM, first compound 0.00999 µM
[24] = second compound 0.316 µM, first compound 0.0999 µM
[25] = second compound 1 µM, first compound 0.000999 µM
[26] = second compound 1 µM, first compound 0.00316 µM
[27] = second compound 1 µM, first compound 0.00999 µM
[28] = second compound 1 µM, first compound 0.0999 µM
[29] = second compound 3.16 µM, first compound 0.000999 µM
[30] = second compound 3.16 µM, first compound 0.00316 µM
[31] = second compound 3.16 µM, first compound 0.00999 µM
[32] = second compound 3.16 µM, first compound 0.0999 µM
[33] = second compound 10 µM, first compound 0.000999 µM
[34] = second compound 10 µM, first compound 0.00316 µM
[35] = second compound 10 µM, first compound 0.00999 µM
[36] = second compound 10 µM, first compound 0.0999 µM
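Note: spheroids exposed to the agents for seven days before readout.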
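Throughout, for viability, T/C: percent viability relative to DMSO vehicle control wells taken as 100%.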

With `C=CC(=O)N1CCN(c2nc(=O)n(-c3c(C)ccnc3C(C)C)c3nc(-c4c(O)cccc4F)c(F)cc23)C(C)C1` (stereo unspecified) + Cc1[nH]c2ccc(F)cc2c1-c1nc2c3cccnc3c3ncccc3c2[nH]1 the IC50 (second compound 0.0316 µM) was > 10000 nM, the IC50 (second compound 0.1 µM) was > 10000 nM and the IC50 (second compound 0.316 µM) was > 10000 nM. For the same compound, the IC50 (second compound 1 µM) was > 10000 nM, the IC50 (second compound 3.16 µM) was > 10000 nM and the IC50 (second compound 10 µM) was > 10000 nM. For the same compound, the viability, T/C [1] was 99.9%, the viability, T/C (second compound 0.0316 µM, first compound 0.1 µM) was 94.1% and the viability, T/C [2] was 103%. For the same compound, the viability, T/C (second compound 0.0316 µM, first compound 1 µM) was 93.8%, the viability, T/C (second compound 0.0316 µM, first compound 3.16 µM) was 105% and the viability, T/C (second compound 0.0316 µM, first compound 10 µM) was 107%. It also gave a viability, T/C [3] of 105%, a viability, T/C (second compound 0.1 µM, first compound 0.1 µM) of 96.6% and a viability, T/C [4] of 103%. The viability, T/C (second compound 0.1 µM, first compound 1 µM) was 95.2%, the viability, T/C (second compound 0.1 µM, first compound 3.16 µM) was 102% and the viability, T/C (second compound 0.1 µM, first compound 10 µM) was 114%. For the same compound, the viability, T/C [5] was 97.4%, the viability, T/C (second compound 0.316 µM, first compound 0.1 µM) was 99.7% and the viability, T/C [6] was 90.3%. For the same compound, the viability, T/C (second compound 0.316 µM, first compound 1 µM) was 106%, the viability, T/C (second compound 0.316 µM, first compound 3.16 µM) was 104% and the viability, T/C (second compound 0.316 µM, first compound 10 µM) was 111%. It also gave a viability, T/C [7] of 95.4%, a viability, T/C (second compound 1 µM, first compound 0.1 µM) of 103% and a viability, T/C [8] of 105%. The viability, T/C (second compound 1 µM, first compound 1 µM) was 98.4%, the viability, T/C (second compound 1 µM, first compound 3.16 µM) was 86.1% and the viability, T/C (second compound 1 µM, first compound 10 µM) was 109%. For the same compound, the viability, T/C [9] was 101%, the viability, T/C (second compound 3.16 µM, first compound 0.1 µM) was 101% and the viability, T/C [10] was 111%. The viability, T/C (second compound 3.16 µM, first compound 1 µM) was 100%, the viability, T/C (second compound 3.16 µM, first compound 3.16 µM) was 108% and the viability, T/C (second compound 3.16 µM, first compound 10 µM) was 101%. The viability, T/C [11] was 99.2%, the viability, T/C (second compound 10 µM, first compound 0.1 µM) was 98% and the viability, T/C [12] was 104%. For the same compound, the viability, T/C (second compound 10 µM, first compound 1 µM) was 101%, the viability, T/C (second compound 10 µM, first compound 3.16 µM) was 94.4% and the viability, T/C (second compound 10 µM, first compound 10 µM) was 76.8%.

`CC[C@@]1(O)C(=O)OCc2c1cc1n(c2=O)Cc2cc3c(CN(C)C)c(O)ccc3nc2-1` + Cc1[nH]c2ccc(F)cc2c1-c1nc2c3cccnc3c3ncccc3c2[nH]1 showed an IC50 (second compound 0.0316 µM) of 44.6 nM, an IC50 (second compound 0.1 µM) of 48 nM and an IC50 (second compound 0.316 µM) of 50.2 nM. The IC50 (second compound 1 µM) was 49.2 nM, the IC50 (second compound 3.16 µM) was 36.9 nM and the IC50 (second compound 10 µM) was 25.9 nM. For the same compound, the viability, T/C [13] was 102%, the viability, T/C [14] was 94.6% and the viability, T/C [15] was 90.2%. The viability, T/C [1] was 70.8%, the viability, T/C [16] was 0.88% and the viability, T/C [2] was 0.48%. It also gave a viability, T/C [17] of 99.3%, a viability, T/C [18] of 101% and a viability, T/C [19] of 101%. For the same compound, the viability, T/C [3] was 78.2%, the viability, T/C [20] was 0.6% and the viability, T/C [4] was 0.5%. The viability, T/C [21] was 94.1%, the viability, T/C [22] was 105% and the viability, T/C [23] was 110%. For the same compound, the viability, T/C [5] was 83.1%, the viability, T/C [24] was 0.88% and the viability, T/C [6] was 0.49%. It also gave a viability, T/C [25] of 92.4%, a viability, T/C [26] of 95% and a viability, T/C [27] of 106%. The viability, T/C [7] was 80.9%, the viability, T/C [28] was 0.78% and the viability, T/C [8] was 0.62%. The viability, T/C [29] was 105%, the viability, T/C [30] was 113% and the viability, T/C [31] was 115%. For the same compound, the viability, T/C [9] was 57.7%, the viability, T/C [32] was 0.9% and the viability, T/C [10] was 0.56%. For the same compound, the viability, T/C [33] was 105%, the viability, T/C [34] was 106% and the viability, T/C [35] was 108%. The viability, T/C [11] was 38.2%, the viability, T/C [36] was 0.71% and the viability, T/C [12] was 0.5%.

In the case of `CCc1c2c(nc3ccc(O)cc13)-c1cc3c(c(=O)n1C2)COC(=O)[C@]3(O)CC` + Cc1[nH]c2ccc(F)cc2c1-c1nc2c3cccnc3c3ncccc3c2[nH]1, the IC50 (second compound 0.0316 µM) is reported as < 0.999 nM, the IC50 (second compound 0.1 µM) is reported as < 0.999 nM and the IC50 (second compound 0.316 µM) is reported as < 0.999 nM. For the same compound, the IC50 (second compound 1 µM) was < 0.999 nM, the IC50 (second compound 3.16 µM) was < 0.999 nM and the IC50 (second compound 10 µM) was < 0.999 nM. For the same compound, the viability, T/C [13] was 20.7%, the viability, T/C [14] was 0.77% and the viability, T/C [15] was 0.82%. The viability, T/C [1] was 0.49%, the viability, T/C [16] was 0.89% and the viability, T/C [2] was 0.5%. The viability, T/C [17] was 17.3%, the viability, T/C [18] was 0.75% and the viability, T/C [19] was 0.91%. For the same compound, the viability, T/C [3] was 0.51%, the viability, T/C [20] was 0.52% and the viability, T/C [4] was 0.36%. For the same compound, the viability, T/C [21] was 15.4%, the viability, T/C [22] was 0.9% and the viability, T/C [23] was 0.74%. It also gave a viability, T/C [5] of 0.45%, a viability, T/C [24] of 0.43% and a viability, T/C [6] of 0.36%. For the same compound, the viability, T/C [25] was 14.3%, the viability, T/C [26] was 1.12% and the viability, T/C [27] was 0.71%. For the same compound, the viability, T/C [7] was 0.56%, the viability, T/C [28] was 0.34% and the viability, T/C [8] was 0.36%. The viability, T/C [29] was 9.81%, the viability, T/C [30] was 1.09% and the viability, T/C [31] was 0.59%. It also gave a viability, T/C [9] of 0.67%, a viability, T/C [32] of 0.58% and a viability, T/C [10] of 0.4%. For the same compound, the viability, T/C [33] was 5.35%, the viability, T/C [34] was 1.12% and the viability, T/C [35] was 0.71%. The viability, T/C [11] was 0.43%, the viability, T/C [36] was 0.31% and the viability, T/C [12] was 0.38%.
